Data on four compounds can be found in patent publication US12203070B2, “Gene knockout of NRF2 for treatment of cancer” (Christiana Care Gene Editing Institute , Inc., priority 2019, dated 2025).

Several values for one entry are separate records, joined by “and”; a condition that tells them apart may be missing. Identical values can stand only once. Entries after “also recorded” stand apart in the source; their conditions may differ. Some results are limits rather than exact numbers.

The test system of one data set is NRF2 gene. Nature of the data set: TIDE indel analysis of bulk sorted eGFP+ A549 cells transfected with pX458 CRISPR/Cas9 constructs. Format: cell-based, human. To be noted: bulk sorted eGFP+ A549 population, pX458 plasmid. The protocol: A549 cells were transfected at a concentration of 5×10^5 cells/100 μl in 4 mm gap cuvette (BioExpress, Kaysville, UT, USA). NRF2 targeting pX458 constructs were separately electroporated (250 V. LV, 13 ms pulse length, 2 pulses, 1 s interval) into A549 cells using a Bio-Rad Gene Pulser XCell Electroporation System (Bio-Rad Laboratories, Hercules, CA, USA). Cells were then recovered in 6-well plates with complete growth media at 37° C. for 72 hours prior to sorting. […] Clones were expanded and transferred to larger plates as the individual clones reached confluence, with DNA isolation occurring when cells reached confluence in a six-well plate (1×10^6 cells/mL).
CRISPR/Cas9 targeted A549 clones were PCR amplified (forward 5′-[…] (SEQ ID NO: 5), reverse 5′-[…] (SEQ ID NO: 6)) using Amplitaq Gold Fast PCR Master Mix (Applied Biosystems, Foster City, CA). Briefly, template DNA, primers, water and master mix were combined and cycled: 95° C. for 10 minutes, (96° C. for 3 s, 60° C. for 3 s, 68° C. for 5 s)×35 cycles, and 72° C. for 10 s. The 402 bp products were purified (Qiagen, Hilden, Germany) and Sanger sequenced using the forward PCR primer. Clonal allelic analyses of individual A549 cell clones were analyzed by the software program, Tracking of Indels by DEcomposition (TIDE), to determine the individual sub-sequences within the multi-peaked breakdown product after CRISPR/Cas9 activity. […]

In data set [1] the test system is NRF2 knockout A549 cells (2-11). The experiment in a line: MTS cell proliferation assay after drug exposure, NRF2 knockout cells. Format: cell-based, human. To be noted: 2-11 knockout A549 cells, 72 hours; for chemosensitivity (MTS proliferation): increasing dosages. As to the method: (§1) Cell viability was evaluated using the CellTiter 96 Aqueous Non-Radioactive Cell Proliferation Assay (Promega, Madison, WI). A549 cell lines were plated at 2×10^3 cells per well and allowed to culture for 24 hours. The cell media was then aspirated, the cells washed with PBS, then exposed to the MTS reagent for 3 hours. After 3 hours of MTS bio-reduction by proliferating cells, the formazan product's absorbance was measured using a 450 nm filter on an Infinite 2000 PRO microplate reader (Tecan, Mannadorf, Switzerland). Cell viability after drug exposure was evaluated using the CellTiter 96 Aqueous Non-Radioactive Cell Proliferation Assay. A549 cell lines were plated at 2×10^3 cells per well and allowed to culture for 24 hours. The cells were then treated with cisplatin, carboplatin, or a combination of cisplatin and vinorelbine for three days. The cell media was then aspirated, the cells washed with PBS, then exposed to the MTS reagent for 3 hours. After 3 hours of MTS bio-reduction by proliferating cells, the formazan product's absorbance was measured using a 450 nm filter on an Infinite 2000 PRO microplate reader.

Data set [2] deals with NRF2 knockout A549 (2-11) tumors. Nature of the data set: Xenograft mouse model, NRF2 knockout A549 (2-11) tumors. The class given is in vivo, athymic nude mice. To be noted: for tumor growth: 16 days. As to the method:
The animal trials presented herein were carried out at Washington Biotech Inc., Simpsonville Maryland, under animal use and care protocol (SOP 505, SOP 520, SOP 522, SOP 1610, SOP1650) approved by the animal care and use committee of Washington Biotechnology Inc. (AAALAC accredited Animal Welfare Assurance number A4192-01). The human xenograft model was established using methodology reported previously. […] et al., Biomed Res. Int. 2015, 1-17 (2015). Female athymic nude mice (Envigo, 5-6 weeks old) were used in this study. Approximately 5×10^6 cells (wild type A549 or homozygous knockout (clonal expansion 2-11)) suspended in PBS with 20% Matrigel were injected subcutaneously into right flank of each mouse. Tumor volume was measured three times a week with a digital caliper once palpable, and calculated using the formula, tumor size=ab^2/2, where 'a' is the larger and 'b' is the smaller of the two dimensions. When tumors grew up to a mean volume of around 100 mm^3, A549 tumor bearing mice or A549-2-11 tumor bearing mice were randomly divided into 7 groups (N=5 for each group) respectively and subject to dose/regimen-finding study. […] Tumor volume and body weight was closely monitored over time. After 16 days, the animals were sacrificed, with tumor removed, weighed and processed for molecular analysis. Mice were euthanized. The data were expressed as mean±SD. Student's t-test and one-way or two-way ANOVA was used to assess the significance of difference. […] A549 xenografts were resected on day 16, snap frozen in liquid nitrogen and stored in -80° C. until usage. All immunofluorescence staining was performed as previously described. Wang et al., Investig. Opthalmology Vis. Sci. 58, 3896 (2017). Briefly, tumors were embedded in Optimum Cutting Temperature (Tissue Tek, Torrance, CA, USA) and 16-μm-thick sections were obtained with a Leica CM3050 cryostat (Leica Microsystems, Buffalo Grove, IL, USA), and mounted on slides. Slides were fixed and incubated with blocking buffer for 1 hour at room temperature. […]

For the next data set, the system named is wild type A549 cells. Nature of the data set: MTS cell proliferation assay after drug exposure, wild type cells. Format: cell-based, human. The protocol:
as §1
(Formazan colour is commonly taken as a measure of viable cells.)

For the compound “5′-UCGAUGUGACCGGGAAUAUCAGG (listed as RNA, chemistry not fully specified) [gRNA1]”, the “indels (TIDE), NRF2 disruption” value with NRF2 gene was “significant amount of indels”.

Turning to “5′-UGAUUUAGACGGUAUGCAACAGG (listed as RNA, chemistry not fully specified) [gRNA2]”, the “indels (TIDE), NRF2 disruption” value in the data set on NRF2 gene was “significant amount of indels”.

On to `N.N.O=C([O-])C1(C(=O)[O-])CCC1.[Pt+2]` [carboplatin], for which, in data set [1] (listed as Carboplatin), the “chemosensitivity (MTS proliferation)” value is reported as “reflected what was observed in the experiments using cisplatin”. Besides, the tumor growth entry in data set [2] (25 mg/kg carboplatin tail vein on day 0, 3, 6, 9) was “same reduced proliferation and growth trend described above is reproduced”.

On to `N.N.[Cl][Pt][Cl]` [cisplatin], for which, in data set [1], the “concentration at and above which proliferation is lost” value is not below 1 µM; the “chemosensitivity (MTS proliferation)” value is “increase in chemosensitivity in a dose-dependent fashion”. Further, the tumor growth result in data set [2] (cisplatin 2 mg/kg tail vein on day 0, 3, 6, 9) is “proliferation of the implanted cells is arrested; also recorded: smallest tumors”. Moreover, the “Ki67 staining of xenograft tumors” value in data set [2] (cisplatin 2 mg/kg, tumors resected day 16, compared to saline) is recorded as “even lower levels of Ki67”. In the data set on wild type A549 cells (wild type A549, 72 hours), the “concentration up to which a slight increase in cell proliferation is seen” value was “up to 3 μM”; the “final concentration at which proliferation is adversely affected” value is 5 µM and 10 µM. The “response of cell proliferation to drug (MTS)” value with wild type A549 cells (wild type A549, increasing dosages, 72 hours) is recorded as “resistant to high dosages of Cisplatin”.
